# Data from patent US20080193563A1, “HARNESSING WNT SIGNALING TO RESTRICT HIV REPLICATION” (priority 2006, published 2008).
# Tests used:
# HIV-Bal in HFA = assay: Cytokine pre-stimulation and HIV-Bal replication in human fetal astrocytes, p24 ELISA; format: cell-based; conditions: 24 h pre-stimulation, p24 day 7
# Experimental: (§1) U87MG (A) and HFA (B) were pre-stimulated with increasing doses of either GM-CSF or IFNγ for 24 h followed by HIV-BAL infection for 24 hours. HIV replication was determined by measuring HIV p24 levels by ELISA seven days post-infection. The dotted line represents basal level of HIV infection of astrocytes without cytokine pre-treatment. Data is representative of three experiments performed in quadruplicate. Error bars represent standard deviations of the mean. Asterisks denote significant values (p<0.05) in comparison to untreated cultures as evaluated by analysis of variance.
# (§2) To determine if pre-stimulation of astrocytes primes astrocytes, for productive HIV infection, U87MG and HFA were pre-treated for 24 hours with TNFγ, GM-CSF, or IFNγ at various concentrations (0-1000 ng/ml) then infected with HIV-Bal at 10 ng of HIV p24/1×10^6 cells for 24 hours. The cells were then washed extensively or trypsinized to remove bound virus and propagated in the presence of the respective cytokine concentration. HIV infection was monitored by p24 ELISA seven days post-infection. […]
# (§3) IFN-γ Treatment and HIV Infection. […] HIV infection was monitored at day 7 postinfection by measuring p24 levels by conventional enzyme-linked immunosorbent assay (ELISA) (National Cancer Institute, Frederick, Md.).
# CD4, hMR, CXCR4 on HFA = assay: HIV receptor and chemokine co-receptor expression on HFA by flow cytometry; format: cell-based, human
# Experimental: (§4) U87MG (A) and HFA (B) were left untreated or treated GM-CSF (50 ng/ml) or IFNγ (100 ng/ml) for 24 h. Expression of receptors on the x-axis was measured by flow cytometry. Isotype refers to mouse IgG. Data is representative of three experiments. Error bars represent standard deviation of the mean. (C). IFNγ up-regulates D6 on U87MG cells. U87MG were left untreated or treated with IFNγ. After 3 days, the cells were immunostained with anti-D6 or isotype antibodies. The first histogram (peak) represents isotype control; the dark shaded histogram represents untreated cultures, and the third histogram (peak) represents IFNγ-treated cultures. Data is typical of quadruplet experiments.
# (§5) Because IFNγ was a potent cytokine in inducing HIV infection of astrocytes, it was determined whether IFNγ treatment modulated key HIV receptors CD4, human mannose receptor D6 and co-receptors (CCR1, CCR2, CCR3, CXCR4, and CCR5) for HIV infection. U87MG is human mannose receptor (hMR) […] (FIG. 5). However, hMR was not detected on HFA, which may be regulated by the differentiation stage of the HFA (FIG. 5 (B)). CD4 and hMR expression in both U87MG and HFA was not augmented by IFNγ or GM-CSF (FIG. 5(A)-(B)). […] HFA were positive for CXCR4 (12%), but its expression was not augmented by GM-CSF or IFNγ treatment (FIG. 5B). IFNγ was reported to enhance CXCR4 and CCR5 expression on simian adult astrocytes, which is in contrast to data on human fetal astrocytes highlighting a discrepancy between simian adult and human fetal astrocytes. […] Infection of U87MG and HFA with a T-tropic isolate (IIIB), while it was productive, was not enhanced by cytokine pre-treatment. This may be a consequence of the laboratory adapted HIV IIIB, therefore primary T-tropic or dual tropic strains may still be responsive to IFNγ pre-treatment of astrocytes. Recently, the CC chemokine receptor D6 was identified as a functional co-receptor for primary HIV infection of astrocytes.
# [1] = tested on: IFNγ, GM-CSF and TNFγ receptors on U87MG; assay: Cytokine receptor expression on U87MG by flow cytometry; format: cell-based, human; conditions: 24-hour treatment
# Experimental: U87MG (A) or HFA (B) were left untreated or treated with GM-CSF (50 ng/ml), IFNγ100 ng/ml) or TNFγ100 ng/ml). […] Percent expression of GM-CSF receptor (R), IFNγR, and TNFγR was measured 24 hours post-stimulation by flow cytometry. Data is representative of three experiments. Error bars represent standard deviations of the mean.
# Prior to evaluating if GM-CSF, IFNγ, and TNFγ can augment HIV replication of astrocytes, a question was whether U87MG and HFA express the respective cytokine receptors. U87MG and HFA were treated with or without the respective cytokine for 24 hours and cytokine receptor expression was evaluated by flow cytometry. Approximately 35% of U87MG expressed the IFNγ receptor and a low level of GM-CSF and TNFγ receptors (<8%; FIG. 3A). […] Untreated HFA expressed only low levels of IFNγ receptor (6%) and this expression was abrogated with IFNγ treatment. GM-CSF and TNFγ receptors were not expressed on HFA.
# [2] = tested on: CD4, hMR, CCR1, D6 on U87MG; assay: HIV receptor and chemokine co-receptor expression on U87MG by flow cytometry; format: cell-based, human
# Experimental: as §4, §5
# HIV-Bal in U87MG = assay: Cytokine pre-stimulation and HIV-Bal replication in U87MG, p24 ELISA; format: cell-based; conditions: pre-stimulation at 10 ng/ml, p24 day 7
# Experimental: as §1, §2, §3
# HIV IIIB = HIV IIIB replication in stimulated PBMCs, p24 ELISA; format: cell-based; parameters: dose or concentration left out as unconfirmed; conditions: ALLN at either 5 or 25, p24 day 7, vs non-ALLN treated
# HIV 302151 (93US151) = assay: Primary HIV isolate 302151 replication in stimulated PBMCs, p24 ELISA; format: cell-based; conditions: ALLN at either 5 or 25, p24 day 7, vs non-ALLN treated
Substance,Induction of HIV replication (HIV-Bal in HFA),"CD4 and hMR expression (CD4, hMR, CXCR4 on HFA)","CXCR4 expression (CD4, hMR, CXCR4 on HFA; untreated 12%)",Effect on respective cytokine receptor expression [1],CD4 and hMR expression [2],Up-regulation of CCR1 expression ([2]; 24 h treatment),Induction of HIV replication (HIV-Bal in U87MG) [fold],Induction of HIV IIIB replication (HIV IIIB),Induction of HIV 30215 replication (HIV 302151 (93US151))
GM-CSF: cytokine secreted by glial cells; used to pre-stimulate astrocytes,no effect,not augmented,not augmented,neither GM-CSF nor TNFγ treatments had an effect,not augmented,no effect,5,,
N-acetyl-Leu-Leu-norleucinal [ALLN peptide],,,,,,,,three,five-fold
